Laboratory results from ChEMBL document CHEMBL4825753 (J Med Chem, 2021).

Legend:
[1] = target: T1, Tyrosine-protein kinase Mer (Homo sapiens, UniProt Q12866); assay: Inhibition of MER (unknown origin) by LC-MS analysis
T1 sequence (Q12866 whole entry): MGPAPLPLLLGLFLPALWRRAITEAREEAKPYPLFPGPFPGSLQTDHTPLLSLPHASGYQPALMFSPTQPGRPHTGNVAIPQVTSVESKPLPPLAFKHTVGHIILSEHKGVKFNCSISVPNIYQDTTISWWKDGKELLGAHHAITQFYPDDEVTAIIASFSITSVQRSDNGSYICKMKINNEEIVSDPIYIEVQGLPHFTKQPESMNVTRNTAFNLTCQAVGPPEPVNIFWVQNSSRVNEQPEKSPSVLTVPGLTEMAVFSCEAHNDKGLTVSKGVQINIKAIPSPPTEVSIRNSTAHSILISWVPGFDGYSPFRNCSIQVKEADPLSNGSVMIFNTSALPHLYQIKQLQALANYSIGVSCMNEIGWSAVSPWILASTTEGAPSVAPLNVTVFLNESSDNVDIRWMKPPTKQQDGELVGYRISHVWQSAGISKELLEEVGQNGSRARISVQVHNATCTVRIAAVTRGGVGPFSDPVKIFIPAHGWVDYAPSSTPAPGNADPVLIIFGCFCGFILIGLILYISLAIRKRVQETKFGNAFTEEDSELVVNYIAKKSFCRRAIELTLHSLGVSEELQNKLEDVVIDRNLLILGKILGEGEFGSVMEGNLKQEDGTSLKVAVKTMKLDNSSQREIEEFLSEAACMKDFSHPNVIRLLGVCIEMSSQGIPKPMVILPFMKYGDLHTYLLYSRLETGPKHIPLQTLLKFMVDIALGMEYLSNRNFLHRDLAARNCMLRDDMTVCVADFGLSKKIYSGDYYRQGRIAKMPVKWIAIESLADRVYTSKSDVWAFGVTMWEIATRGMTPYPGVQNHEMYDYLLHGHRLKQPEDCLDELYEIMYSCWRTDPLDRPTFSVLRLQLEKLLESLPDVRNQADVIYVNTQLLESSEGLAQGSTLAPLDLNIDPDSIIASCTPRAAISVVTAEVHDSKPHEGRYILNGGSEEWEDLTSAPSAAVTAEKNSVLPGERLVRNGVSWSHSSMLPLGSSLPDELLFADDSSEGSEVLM

[2] = target: T2, Tyrosine-protein kinase receptor UFO (Homo sapiens, UniProt P30530); assay: Inhibition of AXL (unknown origin) by LC-MS analysis
T2 sequence (P30530 whole entry): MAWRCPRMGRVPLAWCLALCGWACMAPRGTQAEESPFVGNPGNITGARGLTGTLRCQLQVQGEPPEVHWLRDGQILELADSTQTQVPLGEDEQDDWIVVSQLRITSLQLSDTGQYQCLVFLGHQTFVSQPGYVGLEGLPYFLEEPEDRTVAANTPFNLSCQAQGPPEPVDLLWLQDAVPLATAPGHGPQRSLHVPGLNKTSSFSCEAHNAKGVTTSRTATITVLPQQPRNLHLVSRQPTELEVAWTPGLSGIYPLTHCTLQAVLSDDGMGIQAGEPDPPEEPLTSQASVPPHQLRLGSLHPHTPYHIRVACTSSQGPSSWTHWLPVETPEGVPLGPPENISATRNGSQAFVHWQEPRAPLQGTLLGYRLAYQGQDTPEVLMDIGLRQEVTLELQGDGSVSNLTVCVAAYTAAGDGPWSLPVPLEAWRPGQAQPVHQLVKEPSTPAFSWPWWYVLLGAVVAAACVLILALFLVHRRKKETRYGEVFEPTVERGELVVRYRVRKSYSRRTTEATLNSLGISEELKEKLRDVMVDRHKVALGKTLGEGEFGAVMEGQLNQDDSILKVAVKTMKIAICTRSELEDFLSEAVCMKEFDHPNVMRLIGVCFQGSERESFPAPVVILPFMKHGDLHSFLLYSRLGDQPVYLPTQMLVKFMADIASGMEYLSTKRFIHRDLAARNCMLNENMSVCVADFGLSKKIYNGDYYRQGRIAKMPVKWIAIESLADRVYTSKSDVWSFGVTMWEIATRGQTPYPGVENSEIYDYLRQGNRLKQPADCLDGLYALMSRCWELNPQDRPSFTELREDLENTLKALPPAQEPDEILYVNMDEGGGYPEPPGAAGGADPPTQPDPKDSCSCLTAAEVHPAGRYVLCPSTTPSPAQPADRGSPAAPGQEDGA

[3] = target: T3, Receptor-type tyrosine-protein kinase FLT3 (Homo sapiens, UniProt P36888); assay: Inhibition of FLT3 (unknown origin) by LC-MS analysis
T3 sequence (P36888 whole entry): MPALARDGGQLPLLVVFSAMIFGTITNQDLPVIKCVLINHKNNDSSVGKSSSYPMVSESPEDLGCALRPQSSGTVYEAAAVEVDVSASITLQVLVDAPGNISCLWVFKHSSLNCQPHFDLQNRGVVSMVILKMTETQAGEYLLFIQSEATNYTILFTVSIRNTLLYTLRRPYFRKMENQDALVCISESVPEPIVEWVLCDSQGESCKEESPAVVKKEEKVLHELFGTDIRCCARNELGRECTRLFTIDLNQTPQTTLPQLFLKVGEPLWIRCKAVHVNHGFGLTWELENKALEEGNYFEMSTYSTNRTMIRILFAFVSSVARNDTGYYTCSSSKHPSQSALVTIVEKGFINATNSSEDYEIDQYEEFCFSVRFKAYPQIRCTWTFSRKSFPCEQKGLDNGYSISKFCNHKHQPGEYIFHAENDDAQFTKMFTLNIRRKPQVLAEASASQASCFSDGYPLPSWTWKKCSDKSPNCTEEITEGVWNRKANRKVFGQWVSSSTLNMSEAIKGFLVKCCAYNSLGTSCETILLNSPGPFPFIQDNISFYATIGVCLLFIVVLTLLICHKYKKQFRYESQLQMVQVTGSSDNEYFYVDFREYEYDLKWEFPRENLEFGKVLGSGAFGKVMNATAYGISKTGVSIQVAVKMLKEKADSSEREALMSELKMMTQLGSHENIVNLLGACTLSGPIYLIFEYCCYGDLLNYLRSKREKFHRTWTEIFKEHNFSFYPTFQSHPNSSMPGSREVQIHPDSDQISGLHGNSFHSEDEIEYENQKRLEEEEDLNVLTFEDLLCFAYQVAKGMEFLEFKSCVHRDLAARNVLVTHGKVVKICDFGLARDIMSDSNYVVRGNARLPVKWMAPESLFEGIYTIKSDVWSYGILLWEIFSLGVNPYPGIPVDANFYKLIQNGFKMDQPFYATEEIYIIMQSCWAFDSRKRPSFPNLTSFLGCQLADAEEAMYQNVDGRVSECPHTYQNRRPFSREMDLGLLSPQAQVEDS

[4] = target: T2, Tyrosine-protein kinase receptor UFO; assay: Inhibition of FLAG-tagged AXL (unknown origin) transfected in Cos-7 cells assessed as phosphorylation level incubated for 1 hr by ELISA; type: cell-based
[5] = target: T3, Receptor-type tyrosine-protein kinase FLT3; assay: Inhibition of FLAG-tagged FLT3 (unknown origin) transfected in Cos-7 cells assessed as phosphorylation level incubated for 1 hr by ELISA; type: cell-based
[6] = Lipophilicity, log D of the compound at pH 7.4; type: physicochemical; conditions: buffer

SMILES	IC50 [1] [µM]	IC50 [2] [µM]	IC50 [3] [µM]	IC50 [4] [µM]	IC50 [5] [µM]	logD [6]
Cc1cc(-c2cnn(C)c2C)ccc1-c1nnc(N(C)Cc2ccc3nccn3c2)o1	0.002	0.1	63.1	0.794	> 31.6	3.4
Cc1cc(-c2c(C)nn(C)c2C#N)ccc1-c1nnc(N(C)Cc2ccc3nccn3c2)o1	0.00158	0.0398	15.8	0.398	> 31.6	3.8
Cc1nc(-c2c(C)nn(C)c2C)ccc1-c1nnc(N(C)Cc2ccc3nccn3c2)o1	0.0631	3.16	> 100	10	> 31.6	2.5
Cc1nn(C)c(C)c1-c1ccc(-c2nnc(N(C)Cc3ccc4nccn4c3)o2)c(Cl)c1	0.00251	0.0794	20	0.794	> 31.6	3.3
Cc1cc(-c2c(C)nc(C)n2C)ccc1-c1nnc(N(C)Cc2ccc3nccn3c2)o1	0.0398	3.98	39.8	5.01	> 50.1	2.6
CN(Cc1ccc2nccn2c1)c1nnc(-c2ccccc2)o1	15.8	> 100	> 100			2.4
CN(Cc1ccc2nccn2c1)c1nnc(-c2ccc(C3CC3)cc2)o1	0.794	20	25.1			3.5
Cc1nn(C)c(C)c1-c1ccc(-c2nnc(N(C)Cc3ccc4nccn4c3)o2)c(F)c1	0.0126	1.26	> 100	3.16	> 31.6	3.2
Cc1cc(-c2c(C)nn(C(F)F)c2C)ccc1-c1nnc(N(C)Cc2ccc3nccn3c2)o1	0.501	63.1	100	> 10	> 31.6	4.1
Cc1nn(C)c(C)c1-c1ccc(-c2nnc(N(C)Cc3ccc4nccn4c3)o2)cc1	0.0316	1.26	> 63.1	3.16		3.1
Cc1cc(-c2c(C)n[nH]c2C)ccc1-c1nnc(N(C)Cc2ccc3nccn3c2)o1	0.0398	5.01	39.8	15.8	7.94	3.8
Cc1cc(-c2c(C#N)nn(C)c2C)ccc1-c1nnc(N(C)Cc2ccc3nccn3c2)o1	0.0316	6.31	25.1	6.31		3.4
COc1cc(-c2c(C)nn(C)c2C)ccc1-c1nnc(N(C)Cc2ccc3nccn3c2)o1	0.0158	0.794	39.8	2	> 31.6	2.9
Cc1nn(C)c(C)c1-c1ccc(-c2nnc(N(C)Cc3ccc4nccn4c3)o2)c(C#N)c1	100	> 100	79.4	> 31.6	> 31.6	2.9

Other lines, results leading:

IC50 [1] [µM]	IC50 [2] [µM]	IC50 [3] [µM]	IC50 [4] [µM]	IC50 [5] [µM]	logD [6]	SMILES
0.0251	3.98	10			3.6	CN(Cc1ccc2nccn2c1)c1nnc(-c2ccc(-c3ccccc3C#N)cc2)o1
0.0158	1.58	50.1			4.4	CN(Cc1ccc2nccn2c1)c1nnc(-c2ccc(-c3ccccc3F)cc2)o1
0.2	31.6	39.8			3.1	Cc1noc(C)c1-c1ccc(-c2nnc(N(C)Cc3ccc4nccn4c3)o2)cc1
0.0316	1.58	50.1			4.1	COc1ccccc1-c1ccc(-c2nnc(N(C)Cc3ccc4nccn4c3)o2)cc1
0.0398	3.16	25.1			3.9	CN(Cc1ccc2nccn2c1)c1nnc(-c2ccc(-c3ccccc3)cc2)o1
0.0126	0.631	1			4.7	Cc1ccccc1-c1ccc(-c2nnc(N(C)Cc3ccc4nccn4c3)o2)cc1
					4.7	CN(Cc1ccc2nccn2c1)c1nnc(-c2ccc(-c3ccccc3Cl)cc2)o1
0.0501	6.31	20			3.1	Cc1ncccc1-c1ccc(-c2nnc(N(C)Cc3ccc4nccn4c3)o2)cc1
